IC50 data for 13 compounds are collected here from ChEMBL document CHEMBL1130682, “A concise synthesis and in vitro cytotoxicity of new labdane diterpenes” (Bioorg Med Chem Lett, 1998).

Common to all, as to assay type: functional, cell-based
One assay relates to B16. Put plainly: In vitro cytotoxicity of compound was measured on murine melanoma (B16) cells. The note with it: Mus musculus.
The next assay deals with SNU1. Put plainly: In vitro cytotoxicity of compound was measured on human gastric adenocarcinoma (SNU-1) cells.
The subject of the next assay is P388. As to the kind of experiment: In vitro cytotoxicity of compound was measured on murine lymphocytic leukemia (P-388) cells. The note with it: Mus musculus.

Structures are written as SMILES. Values after ≈ are worked out from the molar mass of the structure shown.

With `C=C1CC[C@H]2C(C)(C)CCC[C@]2(C)[C@H]1C/C=C(/C=O)CC=O`, the results for the IC50 in the assay on B16, with SNU1 and with P388 were 41.2 µg/mL (≈ 136 µM), 12 µg/mL (≈ 39.7 µM) and 4.1 µg/mL (≈ 13.6 µM), respectively.
`C=C1[C@H](O)C[C@H]2C(C)(C)CCC[C@]2(C)[C@H]1/C=C/c1ccoc1`: the 50% inhibitory concentration (IC50) with B16 is 27.3 µg/mL (≈ 90.9 µM); with SNU1 it was 4.8 µg/mL (≈ 16 µM); in the assay with P388, 10.3 µg/mL (≈ 34.3 µM).
Turning to `COc1cccc2c1C(=O)c1c(O)c3c(c(O)c1C2=O)C[C@@](O)(C(=O)CO)C[C@@H]3O[C@H]1C[C@H](N)[C@H](O)[C@H](C)O1` [DOXORUBICIN], the IC50 turned out to be 2.15 µg/mL (≈ 3.96 µM) in the assay with SNU1 and 0.09 µg/mL (≈ 0.166 µM) in the assay on P388.
Consider `CC1(C)CCC[C@@]2(C)[C@H]1CCC1(CO1)[C@@H]2C/C=C1/CCOC1=O` (some centres not stated), for which the IC50 in the assay on B16 came out at 84.5 µg/mL (≈ 265 µM); with SNU1, 15.7 µg/mL (≈ 49.3 µM); in the assay with P388, 12.3 µg/mL (≈ 38.6 µM).
Consider `CC(=O)O[C@]1(C)CC[C@H]2C(C)(C)CCC[C@]2(C)[C@H]1C/C=C1/CCOC1=O`, for which the IC50 in the assay with B16 is 11.3 µg/mL (≈ 31.2 µM); with SNU1, 12.3 µg/mL (≈ 33.9 µM); with P388, 7.8 µg/mL (≈ 21.5 µM).
As for `C=C1CC[C@H]2C(C)(C)CCC[C@]2(C)[C@H]1CC(O)c1ccoc1` (some centres not stated), the IC50 in the assay on B16 amounted to 47.2 µg/mL (≈ 156 µM); in the assay on SNU1 it was 3.9 µg/mL (≈ 12.9 µM); with P388, 3.6 µg/mL (≈ 11.9 µM).
Taken in the same sequence, the figures for `C=C1CC[C@H]2C(C)(C)CCC[C@]2(C)[C@H]1CC=O` were 30.8 µg/mL (≈ 131 µM), 3.9 µg/mL (≈ 16.6 µM) and 0.16 µg/mL (≈ 0.683 µM).
Turning to `CC(=O)O[C@]1(C)CC[C@H]2C(C)(C)CCC[C@]2(C)[C@H]1CC=O`, the IC50 with B16 was 31.9 µg/mL (≈ 108 µM); with SNU1, 4.8 µg/mL (≈ 16.3 µM); in the assay with P388, 6.9 µg/mL (≈ 23.4 µM).
On the same counts, the results for `C=C1CC[C@H]2C(C)(C)CCC[C@]2(C)[C@H]1/C=C/c1ccoc1` [CORONARIN E] are 18.8 µg/mL (≈ 66.1 µM), 8 µg/mL (≈ 28.1 µM) and 10 µg/mL (≈ 35.2 µM).
With `C=C1CC[C@H]2C(C)(C)CCC[C@]2(C)[C@H]1C/C=C(\CO)CCO`, the IC50 amounted to 28.9 µg/mL (≈ 94.3 µM) in the assay with B16, 8.6 µg/mL (≈ 28.1 µM) with SNU1 and 6.3 µg/mL (≈ 20.6 µM) in the assay with P388.
Turning to `C=C1CC[C@H]2C(C)(C)CCC[C@]2(C)[C@H]1C/C=C1/CCOC1=O`, the IC50 with B16 was 7.5 µg/mL (≈ 24.8 µM); in the assay on SNU1 it was 19.2 µg/mL (≈ 63.5 µM); with P388, 6.7 µg/mL (≈ 22.2 µM).
In the case of `C=C[C@](C)(O)CC[C@@H]1[C@@]2(C)CCCC(C)(C)[C@@H]2CC[C@@]1(C)O` [SCLAREOL], the IC50 in the assay with B16 was found to be 28 µg/mL (≈ 90.8 µM); with SNU1, 11.9 µg/mL (≈ 38.6 µM); with P388, 10.1 µg/mL (≈ 32.7 µM).
Turning to `CO[C@@]12[C@H](COC(N)=O)C3=C(C(=O)C(C)=C(N)C3=O)N1C[C@@H]1N[C@@H]12` [MITOMYCIN], the half-inhibitory concentration (IC50) came out at 2.32 µg/mL (≈ 6.94 µM) in the assay on SNU1 and 0.06 µg/mL (≈ 0.179 µM) with P388.
